The values below come from patent publication US20040048830A1, “Use of cortisol-sequestering agents for the treatment of hypercortisolaemia related disorders” (priority 2000, published 2004).

The conditions of experiment [1]: 1:1 cyclodextrin:cortisol complex in water, reported values; cited from earlier work.
Experiment [2] is described as follows: Isothermal titration calorimetry (microcalorimetry) of cortisol complex. Format: binding. Particulars: 1:1 cortisol complex, microcalorimetry / ITC. The source says: The interaction between a sequestering agent and cortisol can be analyzed by physical methods such as nuclear magnetic resonance spectroscopy (nmr) (Fielding, L.: Tetrahedron, 56 (34), 6151-6170, 2000) and microcalorimetry (Stoedeman M. and Wadsoe I.: Pure Appl. Chem., 67(7), 1059-68, 1995). These techniques also allow one to establish the selectivity of the binding to cortisol in comparison with the other endogenous steroidal compounds.
The association constants for complex formation are determined by performing a titration of cyclodextrin into cortisol and recording the UV spectrum as a function of the cyclodextrin/steroid ratio. The change in absorption of cortisol at 246 nm (Δ A) upon stepwise addition of cyclodextrin is recorded. The best fit line to the data give Ka for the cortisol-cyclodextrin complex (Liu Y, Li, B, You C-C, Wada, T, Inoue Y. J. Org. Chem., 2001, 66, 225-232). The UV methodology provides a fairly good estimate of the association constant when this constant is below 10^5 M^−1. The results used for the determination of the association constant for the binding of cortisol to γ-cyclodextrin, β-cyclodextrin and to 2 γ-cyclodextrin derivatives are shown in FIG. 1. […] This is because the chromophore in cortisol is relatively weak and instrument signal to noise issues prevented the preparation of sufficiently dilute solutions. […] The high cortisol binding constant for these γ-cyclodextrin derivatives indicates these derivatives to be potentially very active cortisol sequestering agents. An alternative, but more laborious, method for the determination of the cortisol association constant is by isothermal titration calorimetry (see Wiseman et al. […], 131-137), which can be used to determine the high Ka's more accurately.
On the technique in general: Isothermal titration calorimetry measures the heat released or taken up as one component is titrated into another.

A short description of experiment [3]: UV titration of cyclodextrin into cortisol (absorbance at 246 nm). It counts as binding. The conditions noted are these: 1:1 cortisol:γ-cyclodextrin complex. From the text: UV-visible spectroscopy was used to monitor the complex formation between cortisol and a library of cyclodextrin derivatives. The UV spectrum of cortisol contains an absorption band having a maximum at 246 nm. The intensity of the UV line at 246 nm decreases upon complexation of cortisol by addition of a cyclodextrin host molecule. The decrease in the absorbance of an aqueous solution of the guest molecule (cortisol) upon addition of a typical host molecule (like a cyclodextrin derivative) is taken as evidence that the guest molecule has moved from the polar aqueous environment to the usually less polar environment of the interior of the host molecule. The methodology is well established in the field of supramolecular chemistry (Tsukube, H. et al. In Comprehensive Supramolecular Chemistry: Physical Methods in Supramolecular Chemistry. Davies J E D, Ripmeester J A, (Eds) Elsevier, Oxford, 1996: Vol 8, pp 425-483).
The association constants for complex formation are determined by performing a titration of cyclodextrin into cortisol and recording the UV spectrum as a function of the cyclodextrin/steroid ratio. The change in absorption of cortisol at 246 nm (Δ A) upon stepwise addition of cyclodextrin is recorded. The best fit line to the data give Ka for the cortisol-cyclodextrin complex (Liu Y, Li, B, You C-C, Wada, T, Inoue Y. J. Org. Chem., 2001, 66, 225-232). […]

Experiment [4] can be described thus: Urinary excretion of exogenous cortisol in the rat. It counts as in vivo, Lister hooded rats. The procedure: Two groups of four rats (Lister hooded rats, 300-320 g) were administered (intravenously) either […] of cortisol alone (Group I) or cortisol followed after 15 minutes by 6-per-deoxy-6-per-(2,3-dihydroxypropylthio)-γ-cyclodextrin (Org 26276) as a single intravenous dose of 20 mg/kg (Group II). Each rat was placed in a metabolic cage for the collection of urine. Urine samples were collected for the first 5 hours and thereafter for the remainder of 24 hours The collected urine samples were subjected to HPLC-MS (high pressure liquid chromatograpy on a Phenomenex Luna (50×2 mm; […]) column coupled to a PE Sciex API 3000 Mass Spectrometer). The limit of quantitation for cortisol in urine was 2.5 ng/ml and 10 ng/ml in plasma.

Experiment [5] in a line: Urinary excretion of endogenous cortisol in the guinea pig. Format: in vivo. Particulars: iv 5 mg/250 g. On the procedure:
In guinea piogs cortisol is endogenously produced, the basal level of which is approximately 120-150 ng/ml in plasma.

Read-outs that look alike come from different tables or passages of the source. Marks after values point to notes of the source that are not given here. Where only a bound is given, the exact number is not on record here.

As for Per-2,6-methyl-β-CD, in experiment [1], the “Association Constant (Ka)” value was 5910 M⁻¹.
For `OC[C@H]1O[C@@H]2O[C@H]3[C@H](O)[C@@H](O)[C@@H](O[C@H]4[C@H](O)[C@@H](O)[C@@H](O[C@H]5[C@H](O)[C@@H](O)[C@@H](O[C@H]6[C@H](O)[C@@H](O)[C@@H](O[C@H]7[C@H](O)[C@@H](O)[C@@H](O[C@H]1[C@H](O)[C@H]2O)O[C@@H]7CO)O[C@@H]6CO)O[C@@H]5CO)O[C@@H]4CO)O[C@@H]3CO` [α-CD], in experiment [1], the “Association Constant (Ka)” value was 57 M⁻¹.
With `OC[C@H]1O[C@@H]2O[C@H]3[C@H](O)[C@@H](O)[C@@H](O[C@H]4[C@H](O)[C@@H](O)[C@@H](O[C@H]5[C@H](O)[C@@H](O)[C@@H](O[C@H]6[C@H](O)[C@@H](O)[C@@H](O[C@H]7[C@H](O)[C@@H](O)[C@@H](O[C@H]8[C@H](O)[C@@H](O)[C@@H](O[C@H]1[C@H](O)[C@H]2O)O[C@@H]8CO)O[C@@H]7CO)O[C@@H]6CO)O[C@@H]5CO)O[C@@H]4CO)O[C@@H]3CO` [β-CD, β-cyclodextrin], the “Association Constant (Ka)” value in experiment [1] is 1720 to 3000 M⁻¹.
In the case of `O=C(O)c1ccc(SCC2OC3OC4C(CSc5ccc(C(=O)O)cc5)OC(OC5C(CSc6ccc(C(=O)O)cc6)OC(OC6C(CSc7ccc(C(=O)O)cc7)OC(OC7C(CSc8ccc(C(=O)O)cc8)OC(OC8C(CSc9ccc(C(=O)O)cc9)OC(OC9C(CSc%10ccc(C(=O)O)cc%10)OC(OC%10C(CSc%11ccc(C(=O)O)cc%11)OC(OC2C(O)C3O)C(O)C%10O)C(O)C9O)C(O)C8O)C(O)C7O)C(O)C6O)C(O)C5O)C(O)C4O)cc1` (centres unmarked) [6-per-deoxy-6-per-(4-carboxyphenyl)thio-γ-cyclodextrin], the “Association Constant (Ka)” value in experiment [2] is “˜80,000^b M^−1”.
Take `OC[C@H]1O[C@@H]2O[C@H]3[C@H](O)[C@@H](O)[C@@H](O[C@H]4[C@H](O)[C@@H](O)[C@@H](O[C@H]5[C@H](O)[C@@H](O)[C@@H](O[C@H]6[C@H](O)[C@@H](O)[C@@H](O[C@H]7[C@H](O)[C@@H](O)[C@@H](O[C@H]8[C@H](O)[C@@H](O)[C@@H](O[C@H]9[C@H](O)[C@@H](O)[C@@H](O[C@H]1[C@H](O)[C@H]2O)O[C@@H]9CO)O[C@@H]8CO)O[C@@H]7CO)O[C@@H]6CO)O[C@@H]5CO)O[C@@H]4CO)O[C@@H]3CO` [γ-CD, γ-cyclodextrin]: the “Association Constant (Ka)” value in experiment [1] was 2240 M⁻¹.
Turning to Per-6-acetyl-β-CD, in experiment [1], the “Association Constant (Ka)” value is 3920 M⁻¹.
With Hydroxypropyl-β-CD, the “Association Constant (Ka)” value in experiment [1] is 900 to 1000 M⁻¹.
For the compound `O=C(O)CCSC[C@H]1O[C@@H]2O[C@H]3[C@H](O)[C@@H](O)[C@@H](O[C@H]4[C@H](O)[C@@H](O)[C@@H](O[C@H]5[C@H](O)[C@@H](O)[C@@H](O[C@H]6[C@H](O)[C@@H](O)[C@@H](O[C@H]7[C@H](O)[C@@H](O)[C@@H](O[C@H]8[C@H](O)[C@@H](O)[C@@H](O[C@H]9[C@H](O)[C@@H](O)[C@@H](O[C@H]1[C@H](O)[C@H]2O)O[C@@H]9CSCCC(=O)O)O[C@@H]8CSCCC(=O)O)O[C@@H]7CSCCC(=O)O)O[C@@H]6CSCCC(=O)O)O[C@@H]5CSCCC(=O)O)O[C@@H]4CSCCC(=O)O)O[C@@H]3CSCCC(=O)O` [6-per-deoxy-6-per-(2-carboxyethyl)thio-γ-cyclodextrin], the Ka in experiment [3] is given as ~30,000 M^−1. Besides, the entries for the “Association Constant (Ka)” value in experiment [2] and in experiment [2] (listed as Per-6-deoxy-per-6-(2-carboxyethyl)thio-γ-cyclodextrin) were ~40,000 M^−1 and 40000* M^−1, respectively.
“6-per-deoxy-6-per-(2,3-dihydroxypropylthio)-γ-cyclodextrin [Org 26276]”: the Ka in experiment [3] (listed as Example 1) was >100,000^a M^−1. In experiment [4] (20 mg/kg iv, versus group that received cortisol alone), the “enhancement of excretion of cortisol compared to the control group” value is recorded as “approximately 10 fold”. The “mean cortisol level in the urine” value in experiment [4] (iv cortisol followed after 15 minutes by 20 mg/kg iv, urine collected in the first 5 hours) was found to be 111 ± 78 ng/mL. Further, the “increase of amount of urinary cortisol excreted during 24 hours compared to the control group” value in experiment [5] is given as 3 fold.
